Results published in US11293023B2, “Tunable endogenous protein degradation” (Dana-Farber Cancer Institute, Inc., priority 2015, dated 2022).
Entries after “also recorded” stand apart in the source; their conditions may differ.

What was measured:
Type in all cases: cell-based
[1] = molecular target: T1, FKBP* (FKBP12 F36V), HA-tagged (Homo sapiens, UniProt P62942, F37V); test: Immunoblot of FKBP* degradation in 293FT cells (CRBN-WT or CRBN−/−); settings: for degradation of FKBP*: 100 nM
T1 construct: expressed in transfected cells; host or cells: 293FT cells (CRBN-WT or CRBN-/-)
Procedure: 293FT cells (CRBN-WT or CRBN−/−) expressing either HA-tagged FKBP12WT or FKBP* were treated with indicated concentrations of dFKBP7 for 4 hours.
Isogenic 293FT cells (CRBN-WT or CRBN−/−) expressing either FKBP12WT or FKBP* were treated with 100 nM of either dFKBP7 or dFKBP13 for 4 hours.
Isogenic 293FT cells (CRBN-WT or CRBN−/−) expressing HA-tagged FKBP* were treated with the indicated dose of dFKBP13 for 4 hours.
(§1) 293FT cells (CRBN-WT) expressing FKBP* were pretreated with 1 uM Carfilzomib (proteasome inhibitor), 0.5 uM MLN4924 (neddylation inhibitor), and 10 uM Lenalidomide (CRBN binding ligand) for two hours prior to a 4 hour treatment with dFKBP13.
The dTAG is predicated on the selectivity of FKBP* specific ligands over endogenous, wild type FKBP. In 293T cells expressing wild type FKBP12 or FKBP*, dFKBP7 induces targeted degradation only in FKBP* expressing cells. […] 293FT cells (CRBN-WT or CRBN−/−) expressing either HA-tagged FKBP12WT or FKBP* were treated with indicated concentrations of dFKBP7 for 4 hours.
In 293T cells expressing wild type FKBP12 or FKBP*, treatment with dFKBP7 and dFKBP13 induces targeted degradation only in FKBP* expressing cells. Isogenic 293FT cells (CRBN-WT or CRBN−/−) were engineered to expressed either FKBP12WT or FKBP*. Cells were treated with 100 nM of either dFKBP7 or dFKBP13 for 4 hours before lysates were prepared for western immunoblot analysis.
In an effort to define the optimal concentration of dFKB13 heterobifunctional compound to induce degradation of FKBP*, degradation was measured upon treatment with increasing concentrations of dFKBP13. Isogenic 293FT cells (CRBN-WT or CRBN−/−) were engineered to expressed HA-tagged FKBP*. Cells were treated with the indicated dose of dFKBP13 for 4 hours before lysates were prepared for western immunoblot analysis.
as §1, with “were engineered to express FKBP*. Cells” for “expressing FKBP*”, “dFKBP13. Lysates were prepared and western immunoblot analysis performed.” for “dFKBP13.”

[2] = test system: FKBP*-KRASG12V; test: Immunoblot of FKBP*-KRASG12V (dTAG-KRAS) degradation in NIH3T3 cells; settings: for degradation of FKBP*-KRASG12V: 24 hours
Procedure: FIG. 11 is an immunoblot of NIH3T3 cells expressing KRASG12V allele fused to FKBP* in the N-terminus or C-terminus. Cells were treated with 500 nM dFKBP7 for the indicated time. Cells were harvested and immunoblotted to measure degradation of FKBP*-KRASG12V and downstream surrogates of KRAS signaling (e.g. pMEK and pAKT).
(§2) FIG. 12 is an immunoblot of NIH3T3 cells expressing FKBP* fused to the N-terminus of KRASG12V treated with 1 uM of the indicated dFKBP heterobifunctional compounds for 24 hours. Cells were harvested and immunoblotted to measure degradation of FKBP*-KRASG12V and downstream surrogates of KRAS signaling (e.g. pMEK and pAKT).
as §2, with “FIG. 13” for “FIG. 12”, “with” for “with 1 uM of”, “indicated concentrations of dFKBP13” for “indicated dFKBP heterobifunctional compounds”
FIG. 14 is an immunoblot of NIH3T3 cells expressing FKBP* fused to the N-terminus of KRASG12V treated with 1 uM dFKBP13 for the indicated time. Cells were harvested and immunoblotted to measure degradation of FKBP*-KRASG12V and downstream surrogates of KRAS signaling (e.g. pMEK and pAKT).
FIG. 15 is an immunoblot of NIH3T3 cells expressing dTAG-KRASG12V pretreated with 1 uM Carfilzomib (proteasome inhibitor), 0.5 uM MLN4924 (neddylation inhibitor), and 10 uM Lenalidomide (CRBN binding ligand) for two hours prior to a 4 hour treatment with dFKBP13.
Cells were treated with 500 nM dFKBP7 for the indicated time. Cells were harvested and immunoblotted to measure degradation of FKBP*-KRAS and downstream surrogates of KRAS signaling (e.g. pMEK and pAKT).
In an effort to identify the best performing dFKBP molecule, dTAG-KRAS degradation was profiled across a series of dFKBP molecules. Western blotting of NIH3T3 cells expressing dTAG-KRASG12V were treated with 1 μM of the indicated dFKBP heterobifunctional compounds for 24 hours. Cells were harvested and immunoblotted to measure degradation of FKBP*-KRAS and downstream surrogates of KRAS signaling (e.g. pMEK and pAKT).
Western blotting of NIH3T3 cells expressing FKBP* fused to the N-terminus of KRAS treated with the indicated concentrations of dFKBP13 for 24 hours. Cells were harvested and immunoblotted to measure degradation of FKBP*-KRAS and downstream surrogates of KRAS signaling (e.g. pMEK and pAKT).
To evaluate the kinetic control of targeted degradation of dTAG-KRAS, dFKBP13 was administered by increased duration. Western blotting of NIH3T3 cells expressing FKBP* fused to the N-terminus of KRAS treated with 1 μM dFKBP13 for the indicated time. Cells were harvested and immunoblotted to measure degradation of FKBP*-KRAS and downstream surrogates of KRAS signaling (e.g. pMEK and pAKT).
NIH3T3 cells (CRBN-WT) were engineered to express dTAG-KRASG12V. Cells were pretreated with 1 uM Carfilzomib (proteasome inhibitor), 0.5 uM MLN4924 (neddylation inhibitor), and 10 uM Lenalidomide (CRBN binding ligand) for two hours prior to a 4 hour treatment with dFKBP13. Lysates were prepared and western immunoblot analysis performed. […] Pre-treatment with the NAE1 inhibitor MLN4924 rescued dTAG-KRASG12V expression establishing dependence on CRL activity, as expected for cullin-based ubiquitin ligases that require neddylation for processive E3 ligase activity. Pre-treatment with excess Lenalidomide abolished dFKBP13-dependent dTAG-KRASG12V degradation, confirming the requirement of CRBN engagement for degradation.

[3] = test system: indicated proteins fused to mutant FKBP* with an HA tag; test: Immunoblot of proteins fused to FKBP* in MV4;11 leukemia cells; settings: MV4;11 cells, 16 hours, indicated concentrations
Excerpt: Immunoblots of MV4;11 leukemia cells expressing indicated proteins fused to mutant FKBP* with an HA tag.
To test the general utility of the dTAG technology across several protein types, the indicated proteins fused to the dTAG in MV4;11 leukemia cells were expressed.

[4] = 293FT CRBN-WT or CRBN−/−, 4 hours

T1 sequence (P62942 2-108 F37V limits assumed): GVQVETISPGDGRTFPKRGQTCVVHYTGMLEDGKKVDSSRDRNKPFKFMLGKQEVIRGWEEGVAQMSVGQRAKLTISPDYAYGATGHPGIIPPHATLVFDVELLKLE

| SMILES | degradation of FKBP* [1, 4] | degradation of HA-tagged FKBP* ([1]; 293FT CRBN-WT or CRBN−/−, indicated concentrations, 4 hours) | degradation of N-terminal dTAG-KRAS (FKBP*-KRASG12V) ([2]; NIH3T3, 500 nM, indicated time) | degradation of proteins fused to dTAG [3] | dose dependence of degradation of HA-tagged FKBP* ([1]; 293FT CRBN-WT or CRBN−/−, indicated dose, 4 hours) | mechanism of FKBP* degradation ([1]; 293FT CRBN-WT, 4 hour treatment after inhibitor pretreatment) | degradation of FKBP*-KRASG12V ([2]; NIH3T3, 1 uM) | time to degradation of FKBP*-KRASG12V ([2]; NIH3T3, 1 uM, post treatment) [h] | degradation of FKBP*-KRASG12V ([2]; NIH3T3, indicated concentrations) | mechanism of dTAG-KRASG12V degradation ([2]; NIH3T3 CRBN-WT, 4 hour treatment after inhibitor pretreatment) |
| --- | --- | --- | --- | --- | --- | --- | --- | --- | --- | --- |
| CC[C@H](C(=O)N1CCCC[C@H]1C(=O)O[C@H](CCc1ccc(OC)c(OC)c1)c1cccc(OCC(=O)NCCCOCCOCCOCCCNC(=O)COc2cccc3c2C(=O)N(C2CCC(=O)NC2=O)C3=O)c1)c1cc(OC)c(OC)c(OC)c1 (stereo partly drawn) [dFKBP7] | CRBN-dependent degradation of FKBP* | CRBN-dependent degradation of FKBP* | potent degradation; also recorded: degraded | degradation was observed with nanomolar concentrations | – | – | – | – | – | – |
| CC[C@H](C(=O)N1CCCC[C@H]1C(=O)O[C@H](CCc1ccc(OC)c(OC)c1)c1cccc(OCC(=O)NCCCCCCOc2cccc3c2C(=O)N(C2CCC(=O)NC2=O)C3=O)c1)c1cc(OC)c(OC)c(OC)c1 (stereo partly drawn) [dFKBP13] | CRBN-dependent degradation of FKBP* | – | – | degradation was observed with nanomolar concentrations | dose- and CRBN-dependent degradation | CRBN- and proteasome-dependent degradation | potent degradation | ≤ 1 | potent degradation | CRBN- and proteasome-dependent degradation |
